Like-named read-outs stand apart in the source and are kept apart here.
Assays:
[1] = tested on: ASPP2; details: cells treated with UO126, cell line not stated
[2] = tested on: ASPP2; details: MCF7, 20% FCS and EGF, cycloheximide 50 μg/ml, with versus without UO126
Protocol: (§1) Wild-type ASPP2 (A) or mutant ASPP2 (S827A) (B) were transfected in Saos2 cells in the presence or absence of H-rasv12. 16 hours after transfection, the cells were treated with cycloheximide (50 μg/ml) and lysates were made at the times indicated after cycloheximide treatment. The expression of ASPP2 and H-rasV12 were detected with antibodies V5 or HA, respectively. Actin was used as a loading control. (C) MCF7 cells were starved of serum for 24 hours in 0.5% FCS before treatment with 50 μg/ml cycloheximide (CHX) and 20% FCS and EGF, in the presence (right panel) or absence (left panel) of UO126 for the times indicated. 4 mg of lysate was immunoprecipitated with anti-ASPP2 antibody DX54.10 and the presence of ASPP2 was detected by Western blot with the polyclonal ASPP2/77 antibody (top lanes). Phosphorylated MAPK was detected with phospho-specific MAPK antibody and the total MAPK was detected with a MAPK antibody. The intensity of the. ASPP2 protein immunoprecipitated was quantified and the bands at 0 hours of CHX addition was set as 100 for both cells, as shown by the graph (right panel). (D) MDA Panc3 cells were treated with 50 μg/ml cycloheximide, 20 μM UO126 or both cycloheximide and UO126 for the times indicated. The lysate was resolved on SDS-PAGE gels and ASPP1 and ASPP2 protein levels were detected with mAbASPP1.54.2 and DX54.10 antibodies, respectively, and Mcl-1 was detected with an anti-Mcl1 polyclonal antibody.
(§2) Cells were either transfected with the appropriate expression plasmids or treated with 20 ng/ml EGF and 20 μM UO126 as indicated, the day prior to cycloheximide treatment. Cycloheximide was added to cells at a final concentration of 50 μg/ml in the appropriate medium. Cells were harvested and lysed at the time points indicated.

[3] = tested on: ASPP1 and ASPP2
Protocol: as §1, §2

[4] = tested on: transactivation function of p53; assay: Transactivation assay, bax-luciferase reporter, Saos2 cells; type: cell-based; details: EGF 20 ng/ml + 20% FCS, UO126 20 μM
Protocol: FIG. 27 Endogenous MAPK is necessary for ASPP1 and ASPP2 to stimulate the activity of p53. (A) Saos2 cells were co-transfected with bax-luciferase, ASPP2 and p53. After transfection, medium containing EGF (20 ng/ml) and 20% FCS were added to the cells, in the presence or absence of the MAPK inhibitor UO126 (20 μM). The negative control contained an equal volume of DMSO. […] (B) The putative MAPK phosphorylation sites of ASPP1 and ASPP2 were mutated to alanine, to generate ASPP1 (S671A), ASPP1 (S746), ASPP2 (S698A) and ASPP2 (S827A). Wild-type and mutant ASPP2 (B) or ASPP1 (C) were co-transfected with p53 and Bax-luciferase reporter in the presence or absence of RafCX (B) or K-rasV12 (C) in Saos2 cells, as indicated. Expression levels of ASPP1, p53 and K-rasV12 are shown in the right panel. PCNA was used as a loading control. The graph represents the fold over p53 and ASPP1 or ASPP2 taken from three independent experiments. FCS, foetal calf serum; EGF, epidermal growth factor; and
Saos2 cells (7×10^5) were plated 24 hours prior to transfection in 6-cm-diameter dishes. All transactivation assays contained 1 μg of reporter plasmid. […] The fold increase of p53 and ASPP by HRasV12/K-RasV12/RafCX was determined by the activity of p53 and ASPP in combination with RasV12/RafCX divided by the activity of p53 and ASPP alone.

[5] = MDA Panc3, cycloheximide 50 μg/ml + UO126 20 μM compared to cycloheximide alone

In the case of N#CC(=C(/N)Sc1ccccc1N)/C(C#N)=C(/N)Sc1ccccc1N [UO126], the ASPP2 protein levels [1] is reported as “decrease in ASPP2 protein levels”, the ASPP2 protein levels [2] is reported as “significantly decreased” and the ASPP1 expression levels [3, 5] is reported as “significantly decreased”. For the same molecule, the ASPP2 expression levels [3, 5] was “significantly decreased”, the “Mcl-1 stability (control)” value ([3]; MDA Panc3, cycloheximide, presence or absence of UO126) was “no difference in its stability” and the “transactivation function of p53 when ASPP2 was present” value ([4]; p53 + ASPP2) was “significantly inhibited”. The “transactivation function of p53 alone” value ([4]; p53 without ASPP2) was “small effect”.

From patent US20070225240A1, “Screening Assay and Treatment” (priority 2003, published 2007)
